Source: patent publication US20250171459A1, “2-METHYL-4',5'-DIHYDROSPIRO[PIPERIDINE-4,7'-THIENO[2,3-C]PYRAN] DERIVATIVES AS INHIBITORS OF APOL1 AND METHODS OF USING SAME” (Vertex Pharmaceuticals Incorporated, priority 2022, published 2025)

target: T1, APOL1 (Homo sapiens, UniProt O14791); experiment: MultiTox-Fluor Multiplex Cytotoxicity Assay in tet-inducible APOL1 T-REx-HEK293 cells (cell rescue, ratio of dead to live cells); assay type: cell-based; conditions: tet-inducible transgenic APOL1 T-REx-HEK293 cell lines, 50 ng/mL tet, 24 hours; read-out: IP50 (i.e., IC50 for cell proliferation)
T1 sequence (O14791 1-398 S342G/I384M): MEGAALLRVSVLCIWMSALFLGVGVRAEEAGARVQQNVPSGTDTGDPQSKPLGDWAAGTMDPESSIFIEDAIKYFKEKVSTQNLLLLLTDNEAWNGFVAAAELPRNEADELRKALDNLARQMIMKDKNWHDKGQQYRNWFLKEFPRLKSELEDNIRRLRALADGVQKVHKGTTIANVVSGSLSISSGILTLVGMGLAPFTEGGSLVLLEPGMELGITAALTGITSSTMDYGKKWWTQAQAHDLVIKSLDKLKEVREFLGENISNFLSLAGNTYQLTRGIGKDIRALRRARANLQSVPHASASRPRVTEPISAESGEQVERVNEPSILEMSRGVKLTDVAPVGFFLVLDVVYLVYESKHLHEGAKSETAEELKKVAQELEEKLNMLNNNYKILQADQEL
Outline: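 T-REx-HEK293 cells with tet-inducible APOL1 were treated with compound (10 μM top, 10-point 3-fold dilution, duplicate) plus 50 ng/mL tetracycline for 24 h at 37° C, in DMEM with 2% tet-free FBS. MultiTox-Fluor protease signals gave a dead/live ratio, normalized to no tet (100% viability) and tet alone (0%).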

First: C[C@H]1C[C@@]2(CCN1Cc1cnn(C)c1)OCC(C)(O)c1cc(Cl)sc12 (stereo partly drawn) [Compound 848, (2′S, 7R)-2-chloro-2′,4-dimethyl-1′-[(1-methylpyrazol-4-yl)methyl]spiro[5H-thieno[2,3-c]pyran-7,4′-piperidine]-4-ol]
Second: CC(C)C1Cc2sc(Cl)cc2C2(CCN(Cc3cnn(C)c3)[C@@H](C)C2)O1 (some centres unmarked) [Compound 532]
The IC50 of the first is lower: < 0.1 µM for the first, 0.1 to 0.5 µM for the second. The first is the more potent here.

First: CCc1cc2c(s1)C(C)COC21CCN(Cc2cnn(C)c2)CC1 (single isomer, unassigned) [Compound 1171, 2-ethyl-7-methyl-1′-[(1-methylpyrazol-4-yl)methyl]spiro[6,7-dihydrothieno[3,2-c]pyran-4,4′-piperidine]]
Second: CCc1cc2c(s1)CCOC21CCN(Cc2cnn(C)c2)CC1 [Compound 1138]
The IC50 of the first is higher: 0.5 to 1 µM for the first, 0.1 to 0.5 µM for the second.

`Cc1sc2c(c1CO)CCO[C@@]21CCN(Cc2cnn(CCS(C)(=O)=O)c2)[C@@H](C)C1` [Compound 765, [(2′S, 7R)-2,2′-dimethyl-1′-[[1-(2-methylsulfonylethyl)pyrazol-4-yl]methyl]spiro[4,5-dihydrothieno[2,3-c]pyran-7,4′-piperidine]-3-yl]methanol] and `C[C@H]1C[C@@]2(CCN1Cc1cnn(CS(=O)(=O)N(C)C)c1)OCCc1c2sc(C(F)(F)F)c1CO` [Compound 924] cannot be ordered by IC50: < 0.1 µM for the first, < 0.1 µM for the second.

`C[C@H]1C[C@@]2(CCN1Cc1cnn(CC3CC(C)(C)C(=O)O3)c1)OCCc1c2sc(C(F)(F)F)c1CO` (some centres unmarked) [Compound 983] and `C[C@H]1C[C@@]2(CCN1Cc1cnn(CCCC(N)=O)c1)OCCc1c2sc(C(F)(F)F)c1CO` [Compound 898] cannot be ordered by IC50: < 0.1 µM for the first, < 0.1 µM for the second.

`C[C@H]1C[C@@]2(CCN1Cc1cnn(CCS(C)(=O)=O)c1)OCC(O)c1c2sc(Cl)c1Cl` (stereo partly drawn) [Compound 860, (2′S, 7R)-2,3-dichloro-2′-methyl-1′-[[1-(2-methylsulfonylethyl)pyrazol-4-yl]methyl]spiro[4,5-dihydrothieno[2,3-c]pyran-7,4′-piperidine]-4-ol] and `C[C@H]1C[C@@]2(CCN1Cc1cnn(C[C@@H](O)CO)c1)OC[C@@H](O)c1cc(C(F)(F)F)sc12` [Compound 969] cannot be ordered by IC50: < 0.1 µM for the first, < 0.1 µM for the second.

`CCNC(=O)CCn1cc(CN2CC[C@]3(C[C@@H]2C)OCCc2c3sc(C(F)(F)F)c2CO)cn1` [Compound 900] and `CCN(CC)C(=O)Cn1cc(CN2CC[C@]3(C[C@@H]2C)OCCc2c3sc(C(F)(F)F)c2CO)cn1` [Compound 904] cannot be ordered by IC50: < 0.1 µM for the first, < 0.1 µM for the second.

`CCc1cc2c(s1)CCO[C@@]21CCN(Cc2cn(C(C)(C)C(N)=O)nn2)[C@@H](C)C1` [Compound 149] and `CCc1cc2c(s1)CCO[C@@]21CCN(Cc2cn(C3(CO)COC3)nn2)[C@@H](C)C1` [Compound 147] fall in the same range of IC50: 0.5 to 1 µM for the first, 0.5 to 1 µM for the second.

`CCc1cc2c(s1)CCO[C@@]21CCN(Cc2cn(CC(CO)CC3CCOCC3)nn2)[C@@H](C)C1` (some centres unmarked) [Compound 121] and `CCc1cc2c(s1)CCO[C@@]21CCN(Cc2cn(C3CC(=O)N(CCOC)C3)nn2)[C@@H](C)C1` (some centres unmarked) [Compound 180] cannot be ordered by IC50: < 0.1 µM for the first, < 0.1 µM for the second.

First: CCc1cc2c(s1)C(C)COC21CCN(Cc2cnn(C)c2)CC1 (single isomer, unassigned) [Compound 1170, 2-ethyl-7-methyl-1′-[(1-methylpyrazol-4-yl)methyl]spiro[6,7-dihydrothieno[3,2-c]pyran-4,4′-piperidine]]
Second: CCc1cc2c(s1)CCOC21CCN(Cc2cncs2)CC1 [Compound 1142]
The IC50 of the first is lower: 0.1 to 0.5 µM for the first, 0.5 to 1 µM for the second. The first is the more potent here.

`CCc1cc2c(s1)CCO[C@@]21CCN(Cc2ccc(N[C@@H]3C=C[C@H](CO)C3)nc2)[C@@H](C)C1` [Compound 202] and `CCc1cc2c(s1)CCO[C@@]21CCN(Cc2ccc(Cl)nc2)[C@@H](C)C1` [Compound 199, (2′S,4R)-1′-[(6-chloro-3-pyridyl)methyl]-2-ethyl-2′-methyl-spiro[6,7-dihydrothieno[3,2-c]pyran-4,4′-piperidine]] cannot be ordered by IC50: < 0.1 µM for the first, < 0.1 µM for the second.

Compared with `CCc1cc2c(s1)CCO[C@@]21CCN(CC2CN(C(=O)c3n[nH]c(=O)[nH]3)C2)[C@@H](C)C1` [Compound 486], `CCc1cc2c(s1)CCO[C@@]21CCN(CC2CN(C(=O)c3cc[nH]n3)C2)[C@@H](C)C1` [Compound 469] is lower in IC50: 0.1 to 0.5 µM for the first, < 0.1 µM for the second.

`C[C@H]1C[C@@]2(CCN1C1CCCC1O)OCCc1cc(CC(F)F)sc12` (some centres unmarked) [Compound 604] and `C[C@H]1C[C@@]2(CCN1CC1CCC1)OCCc1cc(CC(F)F)sc12` [Compound 576] fall in the same range of IC50: 0.1 to 0.5 µM for the first, 0.1 to 0.5 µM for the second.

Compared with `CCc1cc2c(s1)CCO[C@@]21CCN(C[C@H]2C[C@@H](NC(=O)COC)C2)[C@@H](C)C1` [Compound 348], `CCc1cc2c(s1)CCO[C@@]21CCN(C[C@H]2C[C@@H](NC(=O)CC3CC3(F)F)C2)[C@@H](C)C1` (some centres unmarked) [Compound 309] is lower in IC50: 0.1 to 0.5 µM for the first, < 0.1 µM for the second. The second is the more potent here.

`CCc1cc2c(s1)CCO[C@@]21CCN(Cc2cnc(NC(C)(C)CO)nc2)[C@@H](C)C1` [Compound 201, 2-[[5-[[(2′S,4R)-2-ethyl-2′-methyl-spiro[6,7-dihydrothieno[3,2-c]pyran-4,4′-piperidine]-1′-yl]methyl]pyrimidin-2-yl]amino]-2-methyl-propan-1-ol] and `CCc1cc2c(s1)CCO[C@@]21CCN(Cc2cnc(NCC(O)CO)nc2)[C@@H](C)C1` (some centres unmarked) [Compound 217] cannot be ordered by IC50: < 0.1 µM for the first, < 0.1 µM for the second.

`CCc1cc2c(s1)CCO[C@@]21CCN(CC(O)CC(F)(F)F)[C@@H](C)C1` (some centres unmarked) [Compound 238] and `CCc1cc2c(s1)CCO[C@@]21CCN(C2CCCC2O)[C@@H](C)C1` (some centres unmarked) [Compound 245] fall in the same range of IC50: 0.1 to 0.5 µM for the first, 0.1 to 0.5 µM for the second.

Compared with `CCc1cc2c(s1)CCOC21CCN(Cc2ccc(C(=O)NC(C)CCO)nc2)CC1` (centres unmarked) [Compound 1054], `CCc1cc2c(s1)CCOC21CCN(Cc2cn(Cc3ccc(=O)[nH]c3)nn2)CC1` [Compound 1124] is higher in IC50: < 0.1 µM for the first, 0.5 to 1 µM for the second. The first is the more potent here.

Compared with `C[C@H]1C[C@@]2(CCN1C[C@@H](O)C(N)=O)OCCc1cc(CC(F)F)sc12` [Compound 610, (2R)-3-[(2′S, 7R)-2-(2,2-difluoroethyl)-2′-methyl-spiro[4,5-dihydrothieno[2,3-c]pyran-7,4′-piperidine]-1′-yl]-2-hydroxy-propanamide], `C[C@H]1C[C@@]2(CCN1Cc1cc(F)c[nH]c1=O)OCCc1cc(CC(F)F)sc12` [Compound 588] is higher in IC50: < 0.1 µM for the first, 0.5 to 1 µM for the second. The first is the more potent here.

`CCc1cc2c(s1)CCOC21CCN(CC2CCN(S(C)(=O)=O)CC2)CC1` [Compound 1151] and `CCc1cc2c(s1)CCOC21CCN(Cc2cn(CCC(N)=O)nn2)CC1` [Compound 1114] fall in the same range of IC50: 0.5 to 1 µM for the first, 0.5 to 1 µM for the second.

Compared with `CCc1cc2c(s1)CCO[C@@]21CCN(Cc2cnn(CC(C)(CO)CO)c2)[C@@H](C)C1` [Compound 266], `CCc1cc2c(s1)CCOC21CCN(Cc2cn(CCCF)nn2)CC1` [Compound 1099] is higher in IC50: < 0.1 µM for the first, 0.5 to 1 µM for the second. The first is the more potent here.

`CCc1cc2c(s1)CCOC21CCN(Cc2cn(CC(O)c3cccnc3)nn2)CC1` (centres unmarked) [Compound 1103] and `CCc1cc2c(s1)CCOC21CCN(Cc2csc(-c3cccnc3)n2)CC1` [Compound 1139] fall in the same range of IC50: 0.5 to 1 µM for the first, 0.5 to 1 µM for the second.

`C[C@H]1C[C@@]2(CCN1Cc1cn(CCO)nn1)OCCc1cc(Cl)sc12` [Compound 627] and `C[C@H]1C[C@@]2(CCN1Cc1cccc(NS(C)(=O)=O)c1)OCCc1cc(Cl)sc12` [Compound 641] fall in the same range of IC50: 0.1 to 0.5 µM for the first, 0.1 to 0.5 µM for the second.

Compared with `CCc1cc2c(s1)CCO[C@@]21CCN(C2CC[C@@H](NC(=O)OC(C)(C)C)C2)[C@@H](C)C1` (single isomer, unassigned) [Compound 296], `C[C@H]1C[C@@]2(CCN1CCCn1cccn1)OCCc1c2sc(Cl)c1CO` [Compound 721] is higher in IC50: 0.1 to 0.5 µM for the first, 0.5 to 1 µM for the second.
